Drawing on the supplement of paper PMC10307832, this text covers relative viability for seven cell lines.

Common to all, as to assay: relative viability (nuclei count vs DMSO), 5 days (fraction); higher = more cells survive
Compound in the assay “RU-SKI 43 + Luminespib”: CC[C@@H](C)CNCC(=O)N1CCC2=C([C@@H]1COC3=CC=CC(=C3)C)C=CS2 [RU-SKI 43] + CCNC(=O)c1noc(-c2cc(C(C)C)c(O)cc2O)c1-c1ccc(CN2CCOCC2)cc1 [Luminespib] (partner 0.01 µM)
In outline: (§1)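 Lung cancer cell lines were pin-tool dosed in 1536-well plates on the day after seeding, with either a lone drug or a fixed anchor-drug dose plus five library-drug doses (not always all listed) in √10 steps. Nuclei were counted on 4× images after 5 days. Relative viability is the ratio of treated-well to vehicle-well nuclei counts, with each value a median of duplicate plates.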

Compound in the assay “Irinotecan + Vorinostat”: CCc1c2c(nc3ccc(OC(=O)N4CCC(N5CCCCC5)CC4)cc13)-c1cc3c(c(=O)n1C2)COC(=O)[C@]3(O)CC [Irinotecan] + O=C(CCCCCCC(=O)Nc1ccccc1)NO [Vorinostat] (partner 1 µM)
In outline: as §1

Compound in the assay “MK-8033 + Pictilisib”: Cn1cc(-c2cnc3ccc4ccc(CS(=O)(=O)NCc5ccccn5)cc4c(=O)c3c2)cn1 [MK-8033] + CS(=O)(=O)N1CCN(Cc2cc3nc(-c4cccc5[nH]ncc45)nc(N4CCOCC4)c3s2)CC1 [Pictilisib] (partner 1 µM)
In short, it runs like this: as §1

Compound in the assay “MK-8033 + Vorinostat”: Cn1cc(-c2cnc3ccc4ccc(CS(=O)(=O)NCc5ccccn5)cc4c(=O)c3c2)cn1 [MK-8033] + O=C(CCCCCCC(=O)Nc1ccccc1)NO [Vorinostat] (partner 1 µM)
In short, it runs like this:
as §1

Regarding NCI-H1395, the relative viability in the assay with RU-SKI 43 + Luminespib (first compound 0.1 µM) stood at 0.733; with RU-SKI 43 + Luminespib (first compound 0.3162 µM) it was 0.899; with RU-SKI 43 + Luminespib (first compound 1 µM), 0.862; in the assay with RU-SKI 43 + Luminespib (first compound 3.162 µM), 0.649; with RU-SKI 43 + Luminespib (first compound 10 µM), 0.635; with Irinotecan + Vorinostat (first compound 2 µM), 0.714. Besides, the relative viability in the assay with Irinotecan + Vorinostat (first compound 6.325 µM) worked out at 0.522; with Irinotecan + Vorinostat (first compound 20 µM), 0.268; with MK-8033 + Pictilisib (first compound 0.02 µM), 0.726; in the assay with MK-8033 + Pictilisib (first compound 0.06325 µM) it was 0.579; with MK-8033 + Pictilisib (first compound 0.2 µM), 0.683; in the assay with MK-8033 + Pictilisib (first compound 0.6325 µM), 0.606. In addition, the relative viability worked out at 0.628 with MK-8033 + Pictilisib (first compound 2 µM); 0.673 with MK-8033 + Vorinostat (first compound 0.02 µM); 0.673 in the assay with MK-8033 + Vorinostat (first compound 0.06325 µM); 0.638 with MK-8033 + Vorinostat (first compound 0.2 µM); 0.654 in the assay with MK-8033 + Vorinostat (first compound 0.6325 µM); 0.692 in the assay with MK-8033 + Vorinostat (first compound 2 µM).
Take NCI-H1437: the relative viability in the assay with RU-SKI 43 + Luminespib (first compound 0.1 µM) was 1.07; with RU-SKI 43 + Luminespib (first compound 0.3162 µM), 1.26; with RU-SKI 43 + Luminespib (first compound 1 µM), 1.15; with RU-SKI 43 + Luminespib (first compound 3.162 µM) it was 1.1; with RU-SKI 43 + Luminespib (first compound 10 µM), 1.04; in the assay with Irinotecan + Vorinostat (first compound 0.6325 µM), 0.537. Further, the relative viability turned out to be 0.54 in the assay with Irinotecan + Vorinostat (first compound 2 µM); 0.407 in the assay with Irinotecan + Vorinostat (first compound 6.325 µM); 0.28 with Irinotecan + Vorinostat (first compound 20 µM); 0.56 in the assay with MK-8033 + Pictilisib (first compound 0.02 µM); 0.409 with MK-8033 + Pictilisib (first compound 0.06325 µM); 0.384 with MK-8033 + Pictilisib (first compound 0.2 µM). In addition, the relative viability in the assay with MK-8033 + Pictilisib (first compound 0.6325 µM) was found to be 0.449; in the assay with MK-8033 + Pictilisib (first compound 2 µM) it was 0.482; with MK-8033 + Vorinostat (first compound 0.02 µM), 0.703; in the assay with MK-8033 + Vorinostat (first compound 0.06325 µM), 0.801; with MK-8033 + Vorinostat (first compound 0.2 µM), 0.732; with MK-8033 + Vorinostat (first compound 0.6325 µM) it was 0.899. Besides, in the assay with MK-8033 + Vorinostat (first compound 2 µM), the relative viability worked out at 0.769.
In the case of NCI-H1650, the relative viability with RU-SKI 43 + Luminespib (first compound 0.1 µM) turned out to be 0.185; with RU-SKI 43 + Luminespib (first compound 0.3162 µM), 0.191; with RU-SKI 43 + Luminespib (first compound 1 µM), 0.226; with RU-SKI 43 + Luminespib (first compound 3.162 µM), 0.205; with RU-SKI 43 + Luminespib (first compound 10 µM) it was 0.206; with Irinotecan + Vorinostat (first compound 0.6325 µM), 0.518. In addition, the relative viability worked out at 0.349 with Irinotecan + Vorinostat (first compound 2 µM); 0.351 with Irinotecan + Vorinostat (first compound 6.325 µM); 0.162 with Irinotecan + Vorinostat (first compound 20 µM); 0.601 in the assay with MK-8033 + Pictilisib (first compound 0.02 µM); 0.469 in the assay with MK-8033 + Pictilisib (first compound 0.06325 µM); 0.646 in the assay with MK-8033 + Pictilisib (first compound 0.2 µM). The relative viability with MK-8033 + Pictilisib (first compound 0.6325 µM) is 0.527; in the assay with MK-8033 + Pictilisib (first compound 2 µM), 0.544; with MK-8033 + Vorinostat (first compound 0.02 µM), 0.507; with MK-8033 + Vorinostat (first compound 0.06325 µM), 0.416; in the assay with MK-8033 + Vorinostat (first compound 0.2 µM), 0.723; with MK-8033 + Vorinostat (first compound 0.6325 µM), 0.532. Besides, the relative viability with MK-8033 + Vorinostat (first compound 2 µM) came to 0.562.
Regarding NCI-H1651, the relative viability in the assay with RU-SKI 43 + Luminespib (first compound 0.1 µM) worked out at 0.697; in the assay with RU-SKI 43 + Luminespib (first compound 0.3162 µM), 0.9; with RU-SKI 43 + Luminespib (first compound 1 µM) it was 0.915; in the assay with RU-SKI 43 + Luminespib (first compound 3.162 µM), 0.807; in the assay with RU-SKI 43 + Luminespib (first compound 10 µM), 0.658; with Irinotecan + Vorinostat (first compound 0.6325 µM) it was 0.362. Moreover, the relative viability amounted to 0.533 with Irinotecan + Vorinostat (first compound 2 µM); 0.364 in the assay with Irinotecan + Vorinostat (first compound 6.325 µM); 0.158 in the assay with Irinotecan + Vorinostat (first compound 20 µM); 0.602 in the assay with MK-8033 + Pictilisib (first compound 0.02 µM); 0.528 with MK-8033 + Pictilisib (first compound 0.06325 µM); 0.433 with MK-8033 + Pictilisib (first compound 0.2 µM). In addition, the relative viability amounted to 0.631 in the assay with MK-8033 + Pictilisib (first compound 0.6325 µM); 0.507 in the assay with MK-8033 + Pictilisib (first compound 2 µM); 0.665 with MK-8033 + Vorinostat (first compound 0.02 µM); 0.484 in the assay with MK-8033 + Vorinostat (first compound 0.06325 µM); 0.593 with MK-8033 + Vorinostat (first compound 0.2 µM); 0.597 with MK-8033 + Vorinostat (first compound 0.6325 µM). Moreover, the relative viability in the assay with MK-8033 + Vorinostat (first compound 2 µM) worked out at 0.633.
On to NCI-H1666, for which the relative viability with RU-SKI 43 + Luminespib (first compound 0.1 µM) came to 0.941; with RU-SKI 43 + Luminespib (first compound 0.3162 µM), 1.03; with RU-SKI 43 + Luminespib (first compound 1 µM) it was 1.03; with RU-SKI 43 + Luminespib (first compound 3.162 µM), 0.942; with RU-SKI 43 + Luminespib (first compound 10 µM), 0.833; with Irinotecan + Vorinostat (first compound 0.6325 µM) it was 0.849. Further, the relative viability stood at 0.706 with Irinotecan + Vorinostat (first compound 2 µM); 0.788 with Irinotecan + Vorinostat (first compound 6.325 µM); 0.631 with Irinotecan + Vorinostat (first compound 20 µM); 0.365 with MK-8033 + Pictilisib (first compound 0.02 µM); 0.31 with MK-8033 + Pictilisib (first compound 0.06325 µM); 0.459 with MK-8033 + Pictilisib (first compound 0.2 µM). Moreover, the relative viability with MK-8033 + Pictilisib (first compound 0.6325 µM) amounted to 0.422; with MK-8033 + Pictilisib (first compound 2 µM), 0.481; with MK-8033 + Vorinostat (first compound 0.02 µM) it was 1.04; in the assay with MK-8033 + Vorinostat (first compound 0.06325 µM), 1.01; with MK-8033 + Vorinostat (first compound 0.2 µM) it was 1.01; in the assay with MK-8033 + Vorinostat (first compound 0.6325 µM), 1.09. The relative viability with MK-8033 + Vorinostat (first compound 2 µM) was 1.04.
As for NCI-H1734, the relative viability with RU-SKI 43 + Luminespib (first compound 0.1 µM) worked out at 0.177; with RU-SKI 43 + Luminespib (first compound 0.3162 µM) it was 0.17; in the assay with RU-SKI 43 + Luminespib (first compound 1 µM), 0.223; in the assay with RU-SKI 43 + Luminespib (first compound 3.162 µM), 0.192; with RU-SKI 43 + Luminespib (first compound 10 µM), 0.168; in the assay with Irinotecan + Vorinostat (first compound 2 µM), 0.522. Besides, the relative viability with Irinotecan + Vorinostat (first compound 6.325 µM) came out at 0.195; with Irinotecan + Vorinostat (first compound 20 µM) it was 0.175; with MK-8033 + Pictilisib (first compound 0.02 µM), 0.48; in the assay with MK-8033 + Pictilisib (first compound 0.06325 µM), 0.37; with MK-8033 + Pictilisib (first compound 0.2 µM) it was 0.466; with MK-8033 + Pictilisib (first compound 0.6325 µM), 0.469. Moreover, the relative viability amounted to 0.45 with MK-8033 + Pictilisib (first compound 2 µM); 0.874 with MK-8033 + Vorinostat (first compound 0.02 µM); 0.639 with MK-8033 + Vorinostat (first compound 0.06325 µM); 0.698 with MK-8033 + Vorinostat (first compound 0.2 µM); 0.836 with MK-8033 + Vorinostat (first compound 0.6325 µM); 0.758 with MK-8033 + Vorinostat (first compound 2 µM).
As for NCI-H1755, the relative viability worked out at 0.5 in the assay with RU-SKI 43 + Luminespib (first compound 0.1 µM); 0.3 with RU-SKI 43 + Luminespib (first compound 0.3162 µM); 0.515 with RU-SKI 43 + Luminespib (first compound 1 µM); 0.472 with RU-SKI 43 + Luminespib (first compound 3.162 µM); 0.301 with RU-SKI 43 + Luminespib (first compound 10 µM); 0.606 with Irinotecan + Vorinostat (first compound 0.6325 µM). Besides, the relative viability with Irinotecan + Vorinostat (first compound 2 µM) came out at 0.7; in the assay with Irinotecan + Vorinostat (first compound 6.325 µM), 0.448; in the assay with Irinotecan + Vorinostat (first compound 20 µM) it was 0.385; with MK-8033 + Pictilisib (first compound 0.02 µM), 0.413; in the assay with MK-8033 + Pictilisib (first compound 0.06325 µM), 0.399; in the assay with MK-8033 + Pictilisib (first compound 0.2 µM) it was 0.368. Moreover, the relative viability came to 0.405 with MK-8033 + Pictilisib (first compound 0.6325 µM); 0.481 with MK-8033 + Pictilisib (first compound 2 µM); 0.748 in the assay with MK-8033 + Vorinostat (first compound 0.02 µM); 0.791 with MK-8033 + Vorinostat (first compound 0.06325 µM); 0.75 in the assay with MK-8033 + Vorinostat (first compound 0.2 µM); 0.678 with MK-8033 + Vorinostat (first compound 0.6325 µM). Besides, the relative viability with MK-8033 + Vorinostat (first compound 2 µM) was 0.766.
